In patent US20150110723A1, “QUINAZOLINE DERIVATIVES, COMPOSITIONS, AND USES RELATED THERETO” (EMORY UNIVERSITY, priority 2012, published 2015):
Blank lines part the entries; values can stand above or below the compound they belong to.

Legend:
[1] = system: Nox2/MPO System; assay: L-012 cell-free assay of Nox2/MPO activity (human neutrophil plasma membranes plus recombinant p47phox, p67phox, Rac1Q61L); assay type: biochemical; details: for IC50: read-out: L-012 Assay IC50 μM ± SEM; for Inhibition of ROS from neutrophil membranes assayed by L-012 (figure legend): cell-free L-012 assay, FIG. 1 / FIG. 2
Method: In Table 1 a cell-free semi-recombinant system (consisting of isolated plasma membranes from human neutrophils as a source for Nox2-p22phox and MPO), supplemented with recombinant p47phox, p67phox and Rac1Q61L (activated Rac), expressed in and isolated from of E. coli. L-012 luminescence was used as a readout to monitor enzymatic activity that monitors the combined enzymatic activity of both the Nox2 system and MPO.
Plasma membranes were prepared from human neutrophils. […]. Membranes were stored at −80 C until use. Membranes are mixed with recombinant, purified cytosolic regulatory proteins (p67Np47 chimera, and constitutively active Rac1 mutant Q61) and FAD, along with varying concentrations of compound, and L-012, which luminesces when it reacts with ROS derived either from Nox2 or from MPO. The reaction is initiated by addition of NADPH and SDS (an artificial activatyor for Nox2). See Curnutte et al., (1987) J. Biol. Chem. 262: 6450-6452.

[2] = target: T1, human Myeloperoxidase (Homo sapiens, UniProt P05164); assay: Amplex Red assay of purified MPO activity; assay type: biochemical; details: isolated purified human MPO, hydrogen peroxide as substrate
T1 sequence (P05164 49-745): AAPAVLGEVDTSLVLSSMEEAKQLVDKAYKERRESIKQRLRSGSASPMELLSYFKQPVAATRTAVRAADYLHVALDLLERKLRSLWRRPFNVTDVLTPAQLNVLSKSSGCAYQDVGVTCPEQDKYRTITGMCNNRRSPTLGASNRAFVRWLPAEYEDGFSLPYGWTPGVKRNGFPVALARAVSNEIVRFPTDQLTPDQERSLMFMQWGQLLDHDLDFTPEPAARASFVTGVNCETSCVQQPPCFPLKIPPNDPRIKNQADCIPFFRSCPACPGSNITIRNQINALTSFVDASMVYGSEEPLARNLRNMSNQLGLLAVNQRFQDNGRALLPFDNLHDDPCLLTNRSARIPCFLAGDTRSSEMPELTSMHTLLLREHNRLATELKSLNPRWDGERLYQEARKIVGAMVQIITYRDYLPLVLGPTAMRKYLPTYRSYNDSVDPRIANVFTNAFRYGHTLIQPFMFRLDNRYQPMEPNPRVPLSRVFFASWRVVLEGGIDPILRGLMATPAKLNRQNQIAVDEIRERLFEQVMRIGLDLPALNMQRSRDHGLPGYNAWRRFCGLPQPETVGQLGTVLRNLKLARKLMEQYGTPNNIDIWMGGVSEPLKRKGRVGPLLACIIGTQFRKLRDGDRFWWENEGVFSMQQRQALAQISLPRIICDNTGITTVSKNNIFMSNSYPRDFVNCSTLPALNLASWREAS
Method: In Table 2, isolated, purified human Myeloperoxidase was used in an enzyme assay system including hydrogen peroxide as substrate and Amplex Red to measure MPO enzymatic activity.
Purified human MPO is mixed with the detector molecule Amplex Red (10-acetyl-3,7-dihydroxyphenoxazine) which increases fluorescence at 590 nm) Hydrogen peroxide is added to initiate the reaction and fluorescence is monitored.

[3] = target: T2, Nox2 (Homo sapiens, UniProt P04839); assay: Cytochrome c reduction assay for superoxide in activated human neutrophils; assay type: cell-based; details: for IC50: isolated human neutrophils, PMA-activated, absorbance at 550 nm
T2 construct: superoxide originates from the endogenous Nox2 enzyme system; endogenous in cells; host or cells: isolated human neutrophils, PMA-stimulated
T2 sequence (P04839 2-570 limits assumed): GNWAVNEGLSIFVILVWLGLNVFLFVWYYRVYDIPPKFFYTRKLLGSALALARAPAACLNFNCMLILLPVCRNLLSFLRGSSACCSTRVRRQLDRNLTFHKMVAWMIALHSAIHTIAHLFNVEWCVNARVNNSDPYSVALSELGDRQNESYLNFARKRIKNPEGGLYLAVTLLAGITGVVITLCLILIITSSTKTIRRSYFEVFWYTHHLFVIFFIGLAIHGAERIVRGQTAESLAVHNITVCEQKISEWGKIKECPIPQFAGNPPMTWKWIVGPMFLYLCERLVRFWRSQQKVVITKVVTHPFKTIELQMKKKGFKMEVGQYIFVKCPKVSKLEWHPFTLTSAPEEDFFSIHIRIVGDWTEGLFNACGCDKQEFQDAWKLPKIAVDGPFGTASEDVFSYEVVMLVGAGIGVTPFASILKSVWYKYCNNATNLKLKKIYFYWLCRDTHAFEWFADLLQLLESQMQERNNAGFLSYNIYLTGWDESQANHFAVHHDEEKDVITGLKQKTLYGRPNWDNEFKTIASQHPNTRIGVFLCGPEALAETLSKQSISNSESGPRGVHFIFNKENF
T2 sequence (P13498 2-195 partner limits assumed): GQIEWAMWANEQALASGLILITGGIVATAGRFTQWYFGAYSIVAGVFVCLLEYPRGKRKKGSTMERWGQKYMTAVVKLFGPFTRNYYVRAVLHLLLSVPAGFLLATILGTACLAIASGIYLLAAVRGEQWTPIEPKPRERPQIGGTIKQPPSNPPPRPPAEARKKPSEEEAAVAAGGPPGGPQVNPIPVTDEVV
Method: Isolated human neutrophils represent a system in which superoxide originates from the endogenous Nox2 enzyme system, and can be measured using cytochrome c reduction that is inhibitable by added superoxide dismutase. In Table 3, Nox2 activity in isolated human neutrophils was assayed using cytochrome c reduction.
Isolated human neutrophils, which contain large amounts of Nox2 enzyme, are mixed with superoxide detector cytochrome c. Phorbol 12-myristate 13-acetate (PMA) is added at 1 μM final to stimulate Nox2 activation resulting superoxide production; absorbance at 550 nm is monitored.

[4] = system: xanthine oxidase; assay: Xanthine/xanthine oxidase-L-012 control (interference) assay; assay type: biochemical; details: L-012 luminescence, FIG. 1 / FIG. 2
Method: Two assays are used to rule out interference. In one assay, xanthine oxidase replaces the Nox2 and MPO enzymatic system as the source of ROS. See Ritsick et al. (2007) Free Radic Biol Med 43: 31-8. Xanthine was added to start the reaction and L012 luminescence was recorded. In a control for the luminol assay, exogenous H2O2 is supplied in place of the Nox expressing H2O2-generating cells or enzyme and luminol luminescence is recorded.

[5] = cell-free semi-recombinant system, L-012 luminescence, does not distinguish Nox2 from MPO inhibition

Compound: O=c1c2ccccc2[nH]c(=S)n1CCc1cnc[nH]1 [LY1-27]
IC50 [2]: 1 µM

Compound: CC(Sc1nc2ccccc2c(=O)n1CCCN(C)C)C(=O)Nc1nc(-c2cccc(Br)c2)cs1 (centres unmarked) [TG6-73]
Inhibition of superoxide production from Nox2 in intact human neutrophils (figure legend) ([3]; cytochrome c reduction, absorbance increase at 550 nm, FIG. 3): inhibits superoxide production | IC50 [3]: 2 µM

Compound: CCN(CC)CCCn1c(SCC(=O)Nc2nc(-c3ccc(Br)cc3)cs2)nc2ccccc2c1=O [AS158A]
IC50 [3]: 0.6 µM

Compound: CCN(CC)CCn1c(=S)[nH]c2ccccc2c1=O [TG6-27-2]
IC50 [2]: 2 µM

Compound: CN(C)CCCn1c(=S)[nH]c2ccccc2c1=O [TG6-17-2]
IC50 [2]: 1.5 µM

Compound: CN1CCN(CCCn2c(=S)[nH]c3ccc(F)cc3c2=O)CC1 [LY1-107N]
IC50 [2]: 1 µM

Compound: CN(C)CCCn1c(=S)[nH]c2cc(F)c(F)cc2c1=O [TG6-250]
IC50 [2]: 1 µM

Compound: O=c1c2ccccc2[nH]c(=S)n1CCc1ccccn1 [Compound 2zzz]
IC50 [1, 5]: 4 ± 1 µM

Compound: COCCCn1c(=S)[nH]c2ccccc2c1=O [LY1-21]
IC50 [2]: 3 µM

Compound: CN(C)CCCCn1c(SCC(=O)Nc2nc(-c3ccc(Br)cc3)cs2)nc2ccccc2c1=O [AS158B]
Inhibition of ROS from neutrophil membranes assayed by L-012 (figure legend) [1]: inhibits ROS generation | IC50 [3]: 3 µM | Effect on control assay with ROS generated from xanthine plus xanthine oxidase [4]: does not affect control assay

Compound: O=c1c2ccccc2[nH]c(=S)n1CCN1CCCC1 [TG6-52-2]
IC50 [2]: 1.5 µM

Compound: COC(=O)c1ccc2c(=O)n(N)c(=S)[nH]c2c1 [AS261b]
IC50 [2]: 1.5 µM

Compound: CN(C)CCCn1c(=S)[nH]c2ccc(F)cc2c1=O [TG6-248]
IC50 [2]: 2 µM

Compound: COc1cc2[nH]c(=S)n(CCCCN(C)C)c(=O)c2cc1OC [AS2-30]
IC50 [2]: 4 µM

Compound: CN(C)CCCn1c(SCC(=O)Nc2nc(-c3ccc(Br)cc3)cs2)nc2ccccc2c1=O [AS148A]
IC50 [3]: 1 µM

Compound: O=c1c2cc(F)ccc2[nH]c(=S)n1CCc1cnc[nH]1 [LY1-73]
IC50 [2]: 1.5 µM

Compound: CN(C)CCCn1c(=S)[nH]c2ccc(Cl)cc2c1=O [TG6-44]
Inhibition of ROS from neutrophil membranes assayed by L-012 (figure legend) [1]: Inhibits ROS activity | IC50 [1, 5]: 1.2 ± 0.1 µM | IC50 [2]: 1 µM | Effect on control assay with ROS generated from xanthine plus xanthine oxidase [4]: does not affect control assay

Continued, values first:

IC50 [1, 5]: 0.7 ± 0.1 µM
Compound: COc1cc2[nH]c(=S)n(C(C)C)c(=O)c2cc1OC [Compound 3m]

IC50 [1, 5]: 0.7 ± 0.1 µM
Compound: CCn1c(=S)[nH]c2ccc(F)cc2c1=O [Compound 3k]

IC50 [1, 5]: 3.3 ± 0.3 µM
Compound: CN(C)CCCn1c(=S)[nH]c2ccccc2c1=O [Compound 2a]

IC50 [3]: 1.5 µM
Compound: CN(C)CCCCn1c(SCC(=O)Nc2nc(-c3cccc(Br)c3)cs2)nc2ccccc2c1=O [AS195]

IC50 [1, 5]: 0.7 ± 0.1 µM
Compound: CC(C)n1c(=S)[nH]c2cc(F)c(F)cc2c1=O [Compound 3l]

L-012 Assay IC50 μM ± SEM [1, 5]: N•I
Compound: CN(C)CCCn1c(=O)[nH]c2ccccc2c1=O [Compound 2b]
